According to patent US20240190872A1, “FABI INHIBITORS FOR GRAM-NEGATIVE PATHOGENS” (THE BOARD OF TRUSTEES OF THE UNIVERSITY OF ILLINOIS, priority 2021, published 2024):
Converted amounts (≈) assume the structure as drawn.

Legend:
Format in all cases: cell-based
[1] = test system: E. coli ΔtolC (JW5503); settings: for MIC E. coli ΔtolC: efflux deficient E. coli ΔtolC; for % @ 0.5 (in brackets after MIC): E. coli ΔTolC, 0.5 μg/mL
Description: (§1) The compounds synthesized, shown in Table 1, were evaluated against Gram-positive and Gram-negative reference strains (S. aureus 29213 and E. coli MG1655, respectively), as well as an efflux deficient E. coli strain (ΔtolC, JW5503).
(§2) Bacterial strains. S. aureus ATCC 29213, E. coli MG1655, E. coli BAA-2340, E. coli BAA-2469, E. coli BAA-2471, E. cloacae BAA-2341, E. cloacae BAA-2468, K. pneumoniae BAA-1705, K. pneumoniae BAA-2342, K. pneumoniae BAA-2470, K. pneumoniae BAA-2472, and K. pneumoniae BAA-2473 were obtained from ATCC. E. coli JW5503 and E. coli JW3596 were obtained from the KEIO Collection. E. cloacae ATCC 29893 was provided by W. van der Donk (UIUC). E. coli AR-0346, E. coli AR-0349, E. coli AR-0493, E. coli AR-0495, and K. pneumoniae AR-0347 were obtained from the CDC and FDA AR Isolate Bank. E. coli F20987, E. coli M66623, E. cloacae S28901.1, K. pneumoniae M14723, K. pneumoniae M67198, K. pneumoniae M67297, K. pneumoniae S20595, K. pneumoniae S47889, A. baumannii W41979, A. baumannii F19521, A. baumannii M13100, and A. baumannii WO22 were obtained from the University of Illinois Chicago Medical School. A. baumannii KB304, A. baumannii KB343, and A. baumannii KB357 were provided by J. Quale.
(§3) Antimicrobial susceptibility tests. Susceptibility testing was performed in biological triplicate, using the micro-dilution broth method as outlined by the Clinical and Laboratory Standards Institute. Bacteria were cultured with cation-adjusted Muller-Hinton broth (Sigma-Aldrich, Cat# 90922) in round-bottom 96-well plates (Corning, Cat# 3788). Human serum (pooled gender, 0.2 μm filtered) was purchased from BioIVT (Hicksville, NY).

[2] = test system: S. aureus ATCC 29213; assay: Antimicrobial susceptibility test (MIC), micro-dilution broth; settings: for MIC S. aureus 29213: S. aureus ATCC 29213
From the text: as §2, §3

[3] = test system: E. coli MG1655; assay: Antimicrobial susceptibility test (MIC); settings: for % @ 32 (in brackets after MIC): E. coli MG1655, 32 μg/mL
From the text: as §2, §3

[4] = test system: K. pneumoniae AR 0066; assay: microbe, parasite or virus in culture; settings: clinical isolate
Description: as §3

[5] = test system: A. baumannii AR 0299; assay: microbe, parasite or virus in culture; settings: clinical isolate
Description: as §3

[6] = test system: E. coli AR 0085; assay: microbe, parasite or virus in culture; settings: clinical isolate
Description: as §3

[7] = test system: A. baumannii AR 0273; assay: microbe, parasite or virus in culture; settings: clinical isolate
Description: as §3

[8] = test system: E. coli AR 0048; assay: microbe, parasite or virus in culture; settings: clinical isolate
Description: as §3

[9] = test system: K. pneumoniae AR 0113; assay: microbe, parasite or virus in culture; settings: clinical isolate
Description: as §3

[10] = test system: A. baumannii AR 0033; assay: microbe, parasite or virus in culture; settings: clinical isolate
Description: as §3

[11] = test system: A. baumannii AR 0313; assay: microbe, parasite or virus in culture; settings: clinical isolate
Description: as §3

[12] = test system: K. pneumoniae AR 0560; assay: microbe, parasite or virus in culture; settings: clinical isolate
Description: as §3

[13] = test system: K. pneumoniae BAA 2472; assay: microbe, parasite or virus in culture; settings: clinical isolate
Description: as §1, §2, §3

| Compound | MIC E. coli ΔtolC [1] | MIC S. aureus 29213 [2] | MIC E. coli MG1655 [3] | further results |
| --- | --- | --- | --- | --- |
| Cc1c(CN(C)C(=O)/C=C/c2cnc3c(c2)CC2(CC(N)C2)C(=O)N3)oc2ccccc12 (stereo not shown) | 0.062 µg/mL (≈ 0.144 µM) | 0.016 µg/mL (≈ 0.0372 µM) | 4 µg/mL (≈ 9.29 µM) |  |
| Cc1c(CN(C)C(=O)/C=C/c2cnc3c(c2)CC(NCCN)C(=O)N3)oc2ccccc12.Cl (stereo not shown) | 1 µg/mL | 0.5 µg/mL | > 32 µg/mL | % @ 0.5 (in brackets after MIC) [1]: 50%; % @ 0.25 (in brackets after MIC) ([2]; S. aureus ATCC 29213, 0.25 μg/mL): 80%; % @ 32 (in brackets after MIC) [3]: 35% |
| Cc1c(CN(C)C(=O)/C=C/c2cnc3c(c2)CC(NCCCN)C(=O)N3)oc2ccccc12.O=CO (stereo not shown) | 0.5 µg/mL | 0.250 µg/mL | >32 µg/mL |  |
| Cc1c(CN(C)C(=O)/C=C/c2cnc3c(c2)CC(N)C(=O)N3)oc2cccc(F)c12.Cl (stereo not shown) | 0.125 µg/mL | 0.031 µg/mL | 8 µg/mL |  |
| Cc1c(CN(C)C(=O)/C=C/c2cnc3c(c2)CC(N)C(=O)N3)oc2ccc(F)cc12.Cl (stereo not shown) | 1 µg/mL | 0.125 µg/mL | > 32 µg/mL | % @ 0.5 (in brackets after MIC) [1]: 60%; % @ 0.062 (in brackets after MIC) ([2]; S. aureus ATCC 29213, 0.062 μg/mL): 60%; % @ 32 (in brackets after MIC) [3]: 40% |
| Cc1c(CN(C)C(=O)/C=C/c2cnc3c(c2)CC(N)C(=O)N3)oc2cc(F)ccc12.Cl (stereo not shown) | 0.5 µg/mL | 0.062 µg/mL | > 32 µg/mL | % @ 32 (in brackets after MIC) [3]: 65% |
| Cc1c(CN(C)C(=O)/C=C/c2cnc3c(c2)CC(N)C(=O)N3)oc2c(F)cccc12.Cl (stereo not shown) | 0.062 µg/mL | 0.016 µg/mL | 8 µg/mL | % @ 4 (in brackets after MIC) ([3]; E. coli MG1655, 4 μg/mL): 50-80% |
| Cc1c(CN(C)C(=O)/C=C/c2cnc3c(c2)CCC(CN)C(=O)N3)oc2ccccc12 (stereo not shown) |  |  |  | MIC K. pneumoniae AR 0066 [4]: 32 µg/mL (≈ 76.5 µM); MIC A. baumannii AR 0299 [5]: 32 µg/mL (≈ 76.5 µM); MIC E. coli AR 0085 [6]: 16 µg/mL (≈ 38.2 µM); MIC A. baumannii AR 0273 [7]: 32 µg/mL (≈ 76.5 µM); MIC E. coli AR 0048 [8]: 16 µg/mL (≈ 38.2 µM); MIC K. pneumoniae AR 0113 [9]: 32 µg/mL (≈ 76.5 µM); MIC A. baumannii AR 0033 [10]: 16 µg/mL (≈ 38.2 µM); MIC A. baumannii AR 0313 [11]: 32 µg/mL (≈ 76.5 µM); MIC K. pneumoniae AR 0560 [12]: 16 µg/mL (≈ 38.2 µM); MIC K. pneumoniae BAA 2472 [13]: 32 µg/mL (≈ 76.5 µM) |
| Cc1c(CN(C)C(=O)/C=C/c2cnc3c(c2)CC2(CC(CN)C2)C(=O)N3)oc2ccccc12 (stereo not shown) |  |  |  | MIC K. pneumoniae AR 0066 [4]: 32 µg/mL (≈ 72 µM); MIC A. baumannii AR 0299 [5]: >32 µg/mL; MIC E. coli AR 0085 [6]: 16 µg/mL (≈ 36 µM); MIC A. baumannii AR 0273 [7]: >32 µg/mL; MIC E. coli AR 0048 [8]: 32 µg/mL (≈ 72 µM); MIC K. pneumoniae AR 0113 [9]: 32 µg/mL (≈ 72 µM); MIC A. baumannii AR 0033 [10]: 32 µg/mL (≈ 72 µM); MIC A. baumannii AR 0313 [11]: >32 µg/mL; MIC K. pneumoniae AR 0560 [12]: 32 µg/mL (≈ 72 µM); MIC K. pneumoniae BAA 2472 [13]: 32 µg/mL (≈ 72 µM) |
| NC1Cc2cc(C=CC(=O)N3CC4C=C(c5ccccc5)CC4C3)cnc2NC1=O (mixture of isomers) | 0.062 µg/mL | 0.062 µg/mL | 16 µg/mL |  |
| NC1CCc2cc(C=CC(=O)N3CC4C=C(c5ccccc5)CC4C3)cnc2NC1=O (mixture of isomers) | 0.062 µg/mL | 0.031 µg/mL | 8 µg/mL |  |
| Cc1c(CN(C)C(=O)C=Cc2cnc3c(c2)CC2(CC(CN)C2)C(=O)N3)oc2ccccc12 (mixture of isomers) [(±)-7] | 0.125 µg/mL | 0.031 µg/mL | 16 µg/mL |  |
